From patent US8273766B2, “Tetrahydroisoquinoline compound” (Kowa Company, Ltd., priority 2007, dated 2012)

Biological target: T1, CCR3 (Cavia porcellus, UniProt Q9Z2I3)
T1 construct: from tissue; host or cells: peritoneal eosinophils of polymyxin B-treated male Hartley guinea pigs (Japan SLC, Inc.)
T1 sequence (Q9Z2I3 1-358): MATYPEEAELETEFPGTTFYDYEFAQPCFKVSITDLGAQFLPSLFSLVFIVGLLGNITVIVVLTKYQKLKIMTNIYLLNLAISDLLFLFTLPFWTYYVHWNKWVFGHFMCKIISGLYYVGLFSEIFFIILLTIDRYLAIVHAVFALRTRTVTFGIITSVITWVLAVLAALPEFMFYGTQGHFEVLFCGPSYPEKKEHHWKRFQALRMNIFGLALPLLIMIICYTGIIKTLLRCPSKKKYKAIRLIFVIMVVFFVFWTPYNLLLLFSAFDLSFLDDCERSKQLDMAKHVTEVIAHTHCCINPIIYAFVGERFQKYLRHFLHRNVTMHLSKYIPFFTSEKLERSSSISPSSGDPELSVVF
Assay: CCR3 antagonistic action: eotaxin-induced migration of guinea pig eosinophils (chemotaxis chamber)
Type: cell-based
Conditions: inhibition of migration of guinea pig eosinophils toward guinea pig eotaxin 100 ng/mL; 30 min pretreatment at 37° C., 1 hour reaction
Experimental: Test Example 1 Test of a CCR3 Antagonistic Action
Guinea pig eosinophils were prepared with reference to a literature (Pinkus, Blood. 52 (1978) 127-134). That is, to a six-week old male Hartley guinea pig (Japan SLC, Inc.) was intraperitoneally injected polymyxin B (SIGMA) diluted with PBS (−) at 2 mg per animal once a week. After repeating the same operation four times for 24 hours, the abdominal cavity of each individual under anesthesia with diethyl ether was injected with 50 mL of PBS (−) containing 6 U/mL of heparin and 1 mM EDTA, and the liquid was collected. It was washed with PBS (−) containing 1 mM EDTA, and the cells were suspended in a Percoll solution having a specific density of 1.070 were centrifuged using a discontinuous Percoll gradient liquid to obtain an eosinophilic crude fraction. After washing with PBS (−), they were suspended in RPMI-1640 culture medium (SIGMA) containing 1% FCS, and cultured in a CO2 incubator overnight. Next day, the cells were harvested, a compound to be tested was added to the eosinophils suspended in the RPMI-1640 culture medium containing 0.1% BSA (bovine serum albumin, SIGMA), and then pretreatment was performed by leaving it to stand still at 37° C. for 30 minutes. A mixed liquid of guinea pig eotaxin (Chemical Synthesis Services) and the compound to be tested that had been prepared to be at a final concentration of 100 ng/mL was added into a lower chamber of 96-well chemotaxis chambers (Neuroprobe), and then a mixed liquid of 12.0×10^5 eosinophils per well and the compound to be tested was sequentially set in an upper chamber of a polycarbonate filter (Neuroprobe) having a pore size of 5 μm after completion of the treatment with polyvinyl pyrrolidone (PVP), and allowed to undergo a reaction in a CO2 incubator for 1 hour. After completion of the reaction, the filter was taken out, the cells were stained in a Diff-Quik stain kit (International Reagents Co., Ltd.), and the migrated eosinophils were microscopically counted. Five fields of view per well were counted, and an average value of the counts was taken as a count of migrated eosinophils.

Structure (SMILES)	IC50
CC(C)(C)c1ccc(CNCCN2Cc3ccccc3CC2Cc2ccc(F)cc2)cc1 (stereo not drawn) [Example 96, N-(4-tert-butylbenzyl)-2-[3-(4-fluorobenzyl)-3,4-dihydroisoquinolin-2(1H)-yl]ethanamine]	30 nM
CC(=O)c1cccc(CNCCN2Cc3ccccc3CC2Cc2ccc(F)cc2)c1 (stereo not drawn) [Example 106, N-(3-acetylbenzyl)-2-[3-(4-fluorobenzyl)-3,4-dihydroisoquinolin-2(1H)-yl]ethanamine]	7 nM
CCNc1ccc(CNCCN2Cc3ccc(F)cc3CC2Cc2ccc(F)cc2)cc1 (stereo not drawn) [Example 139, 4-[[2-[6-fluoro-3-(4-fluorobenzyl)-3,4-dihydroisoquinolin-2(1H)-yl]ethylamino]methyl]-N-ethylaniline]	40 nM
CC(C)(O)c1ccc(CNCCN2Cc3ccc(F)cc3CC2Cc2ccc(F)cc2)cc1 (stereo not drawn) [Example 154, N-[4-(1-hydroxy-1-methylethyl)benzyl]-2-[6-fluoro-3-(4-fluorobenzyl)-3,4-dihydroisoquinolin-2(1H)-yl]ethanamine]	20 nM
CC(C)(C)c1ccc(CNCCN2Cc3ccc(F)cc3CC2Cc2ccc(Cl)cc2)cc1 (stereo not drawn) [Example 156, N-(4-tert-butylbenzyl)-2-[3-(4-chlorobenzyl)-6-fluoro-3,4-dihydroisoquinolin-2(1H)-yl]ethanamine]	80 nM
CS(=O)(=O)Nc1cccc(CNCCN2Cc3ccc(F)cc3CC2Cc2ccc(Cl)cc2)c1 (stereo not drawn) [Example 157, N-(3-methanesulfonylaminobenzyl)-2-[3-(4-chlorobenzyl)-6-fluoro-3,4-dihydroisoquinolin-2(1H)-yl]ethanamine]	25 nM
CC(C)Nc1ccc(CNCCN2Cc3cc(F)ccc3CC2Cc2ccc(F)cc2)cc1 (stereo not drawn) [Example 161, 4-[[2-[7-fluoro-3-(4-fluorobenzyl)-3,4-dihydroisoquinolin-2(1H)-yl]ethylamino]methyl]-N-isopropylaniline]	25 nM
Fc1ccc(CC2Cc3ccccc3CN2CCNCc2ccncc2)cc1 (stereo not drawn) [Example 171, N-(pyridin-4-yl)methyl-2-[3-(4-fluorobenzyl)-3,4-dihydroisoquinolin-2(1H)-yl]ethanamine]	14 nM

The next molecules have a lower IC50 than those just listed; values first:

IC50	Structure (SMILES)
1 nM	CS(=O)(=O)Nc1cccc(CNCCN2Cc3ccc(F)cc3CC2Cc2ccc(F)cc2)c1 (stereo not drawn) [Example 126, N-[3-(methanesulfonylamino)benzyl]-2-[6-fluoro-3-(4-fluorobenzyl)-3,4-dihydroisoquinolin-2(1H)-yl]ethanamine]
4 nM	CC(C)Nc1ccc(CNCCN2Cc3ccc(F)cc3CC2Cc2ccc(F)cc2)cc1 (stereo not drawn) [Example 138, 4-[[2-[6-fluoro-3-(4-fluorobenzyl)-3,4-dihydroisoquinolin-2(1H)-yl]ethylamino]methyl]-N-isopropylaniline]
4 nM	COCCNc1ccc(CNCCN2Cc3ccc(F)cc3CC2Cc2ccc(F)cc2)cc1 (stereo not drawn) [Example 150, 4-[[2-[6-fluoro-3-(4-fluorobenzyl)-3,4-dihydroisoquinolin-2(1H)-yl]ethylamino]methyl]-N-(2-methoxyethyl)aniline]
2 nM	Fc1ccc(CC2Cc3cc(F)ccc3CN2CCNCc2ccncc2)cc1 (stereo not drawn) [Example 180, N-(pyridin-4-yl)methyl-2-[6-fluoro-3-(4-fluorobenzyl)-3,4-dihydroisoquinolin-2(1H)-yl]ethanamine]
